Values of other authors in US11376213B2, “Topical pharmaceutical formulation” (Futura Medical Developments Limited, priority 2016, dated 2022).
Structures can show the parent of a compound that is named as a salt.

Assays:
[1] = not given; remark: listed apart in the source
[2] = factor by which greater than piroxicam

CC(C)Cc1ccc(C(C)C(=O)O)cc1 (centres unmarked) [Ibuprofen, isobutylphenylpropionic acid]
aqueous solubility: extremely low

O=C(O)Cc1ccccc1Nc1c(Cl)cccc1Cl [diclofenac acid]
saturated solubility in polyethylene glycol ([1]; polyethylene glycol): 11.18 % w/w
saturated solubility in propylene glycol [1]: 1.16 % w/w

O=C(O)Cc1ccccc1Nc1c(Cl)cccc1Cl [sodium salt of diclofenac acid, diclofenac sodium]
saturated solubility in propylene glycol [1]: approximately 50 % w/w

O=C(O)Cc1ccccc1Nc1c(Cl)cccc1Cl [diclofenac]
efficacy index (ratio of skin penetration to potency) relative to piroxicam [2]: ~10^3
